Laboratory results taken from patent US6020521A, “Macrolide LHRH antagonists” (Abbott Laboratories, priority 1998, dated 2000).

Target: T1, LHRH rat pituitary receptor (Rattus norvegicus, UniProt P30969)
T1 construct: from tissue; host or cells: rat pituitary
T1 sequence (P30969 1-327): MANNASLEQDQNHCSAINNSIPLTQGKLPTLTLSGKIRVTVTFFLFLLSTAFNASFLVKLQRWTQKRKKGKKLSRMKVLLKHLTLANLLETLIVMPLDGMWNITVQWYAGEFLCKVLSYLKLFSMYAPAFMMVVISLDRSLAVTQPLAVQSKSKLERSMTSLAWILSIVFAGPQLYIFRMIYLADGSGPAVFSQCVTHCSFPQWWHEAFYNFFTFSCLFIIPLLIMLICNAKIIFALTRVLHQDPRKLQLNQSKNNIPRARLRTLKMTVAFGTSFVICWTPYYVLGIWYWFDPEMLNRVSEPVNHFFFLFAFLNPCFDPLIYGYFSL
Assay: LHRH rat pituitary receptor binding (pKI)
Conditions: receptor binding affinity, negative logarithm of the equilibrium dissociation constants
Protocol: Representative compounds of the present invention were evaluated in in vitro tests for LHRH rat pituitary receptor binding (pKI) and for LH inhibition from rat pituitary cells for antagonist potency (pA2). The tests employed the methods detailed in F. Haviv, et al. J. Med. Chem., 32: 2340-2344 (1989). The receptor binding affinity (pKI) is the negative logarithm of the equilibrium dissociation constants.

CC[C@H]1OC(=O)[C@H](C)[C@@H](OC(=O)N2C(=O)OC[C@@H]2C)[C@H](C)[C@@H](O[C@@H]2O[C@H](C)C[C@H](N(C)C(C)C)[C@H]2O)[C@](C)(OC)C[C@@H](C)C(=O)[C@H](C)[C@H]2N(CCc3ccc(F)cc3)C(=O)O[C@]12C [Example 32, 11-Deoxy-11-[carboxy(4-fluorophenethyl)amino]-3-O-[4-(S)-methyl-oxazolidin-2-one]carbamoyl-5-O-(3'-N-desmethyl-3'-N-isopropyl)desosaminyl-6-O-methyl-erythronolide A 11,12-(cyclic carbamate)]
Ki: 0.155 nM

CC[C@H]1OC(=O)[C@H](C)[C@@H](OC(=O)N2C(=O)OC[C@@H]2C)[C@H](C)[C@@H](O[C@@H]2O[C@H](C)C[C@H](N(C)C3CCCCC3)[C@H]2O)[C@](C)(OC)C[C@@H](C)C(=O)[C@H](C)[C@H]2N(CCc3ccc(Cl)cc3)C(=O)O[C@]12C [Example 26, 11-Deoxy-11-[carboxy(4-chlorophenethyl)amino]-3-O-[4-(S)-methyl-oxazolidin-2-one]carbamoyl-5-O-(3'-N-desmethyl-3'-N-cyclohexyl)desosaminyl-6-O-methyl-erythronolide A 11,12-(cyclic carbamate)]
Ki: 0.166 nM

CC[C@H]1OC(=O)[C@H](C)[C@@H](OC(=O)N2C(=O)OC[C@@H]2C)[C@H](C)[C@@H](O[C@@H]2O[C@H](C)C[C@H](N(C)CC3(C)CC3)[C@H]2O)[C@](C)(OC)C[C@@H](C)C(=O)[C@H](C)[C@H]2N(CCc3ccc(F)c(Cl)c3)C(=O)O[C@]12C [Example 55, 11-Deoxy-11-[carboxy(3-chloro-4-fluorophenethyl)amino]-3-O-[4-(S)-methyl-oxazolidin-2-one]carbamoyl-5-O-[3'-N-desmethyl-3'-N-(1-methyl-cyclopropyl)methyl]desosaminyl-6-O-methyl-erythronolide A 11,12-(cyclic carbamate)]
Ki: 0.316 nM

CC[C@H]1OC(=O)[C@H](C)[C@@H](OC(=O)N2C(=O)OC[C@@H]2C)[C@H](C)[C@@H](O[C@@H]2O[C@H](C)C[C@H](N(C)CC3CC3)[C@H]2O)[C@](C)(OC)C[C@@H](C)C(=O)[C@H](C)[C@H]2N(CCc3ccc(Cl)cc3)C(=O)O[C@]12C [Example 23, 11-Deoxy-11-[carboxy(4-chlorophenethyl)amino]-3-O-[4-(S)-methyl-oxazolidin-2-one]carbamoyl-5-O-(3'-N-desmethyl-3'-N-cyclopropylmethyl)desosaminyl-6-O-methyl-erythronolide A 11,12-(cyclic carbamate)]
Ki: 1.45 nM

CC[C@H]1OC(=O)[C@H](C)[C@@H](OC(=O)N2C(=O)OC[C@@H]2C)[C@H](C)[C@@H](O[C@@H]2O[C@H](C)C[C@H](N(CC3CC3)C(C)C)[C@H]2O)[C@](C)(OC)C[C@@H](C)C(=O)[C@H](C)[C@H]2N(CCc3ccc(F)c(Cl)c3)C(=O)O[C@]12C [Example 56, 11-Deoxy-11-[carboxy(3-chloro-4-fluorophenethyl)amino]-3-O-[4-(S)-methyl-oxazolidin-2-one]carbamoyl-5-O-(3'-bis-N-desmethyl-3'-N-cyclopropylmethyl-3'-N-isopropyl)desosaminyl-6-O-methyl-erythronolide A 11,12-(cyclic carbamate)]
Ki: 0.12 nM

CC[C@H]1OC(=O)[C@H](C)[C@@H](OC(=O)N2C(=O)OC[C@@H]2C)[C@H](C)[C@@H](O[C@@H]2O[C@H](C)C[C@H](N(CC3CC3)CC3CC3)[C@H]2O)[C@](C)(OC)C[C@@H](C)C(=O)[C@H](C)[C@H]2N(CCc3ccc(Cl)c(Cl)c3)C(=O)O[C@]12C [Example 42, 11-Deoxy-11-[carboxy(3,4-dichlorophenethyl)amino]-3-O-[4-(S)-methyl-oxazolidin-2-one]carbamoyl-5-O-(3'-bis-N-desmethyl-3'-bis-N-cyclopropylmethyl)desosaminyl-6-O-methyl-erythronolide A 11,12-(cyclic carbamate)]
Ki: 0.661 nM

CC[C@H]1OC(=O)[C@H](C)[C@@H](OC(=O)N2C(=O)OC[C@@H]2C)[C@H](C)[C@@H](O[C@@H]2O[C@H](C)C[C@H](NC(C)C)[C@H]2O)[C@](C)(OC)C[C@@H](C)C(=O)[C@H](C)[C@H]2N(CCc3ccc(Cl)cc3)C(=O)O[C@]12C [Example 7, 11-Deoxy-11-[carboxy(4-chlorophenethyl)amino]-5-O-(3'-bis-N-desmethyl-3'-N-isopropyl)desosaminyl-3-O-[4-(S)-methyl-oxazolidin-2-one]carbamoyl-6-O-methyl-erythronolide A 11,12-(cyclic carbamate)]
Ki: 3.55 nM

CC[C@H]1OC(=O)[C@H](C)[C@@H](OC(=O)N2C(=S)OC[C@@H]2C)[C@H](C)[C@@H](O[C@@H]2O[C@H](C)C[C@H](N(C)CC3CC3)[C@H]2O)[C@](C)(OC)C[C@@H](C)C(=O)[C@H](C)[C@H]2N(CCc3ccc(Cl)c(Cl)c3)C(=O)O[C@]12C [Example 41, 11-Deoxy-11-[carboxy(3,4-dichlorophenethyl)amino]-3-O-[4-(S)-methyl-oxazolidin-2-thione]carbamoyl-5-O-(3'-N-desmethyl-3'-N-cyclopropylmethyl)desosaminyl-6-O-methyl-erythronolide A 11,12-(cyclic carbamate)]
Ki: 10.2 nM

CC[C@H]1OC(=O)[C@H](C)[C@@H](OC(=O)N2C(=O)OC[C@@H]2C)[C@H](C)[C@@H](O[C@@H]2O[C@H](C)C[C@H](N(CC3CC3)CC3CC3)[C@H]2O)[C@](C)(OC)C[C@@H](C)C(=O)[C@H](C)[C@H]2N(CCc3ccc(Cl)c(F)c3)C(=O)O[C@]12C [Example 44, 11-Deoxy-11-[carboxy(4-chloro-3-fluorophenethyl)amino]-3-O-[4-(S)-methyl-oxazolidin-2-one]carbamoyl-5-O-(3'-bis-N-desmethyl-3'-bis-N-cyclopropylmethyl)desosaminyl-6-O-methyl-erythronolide A 11,12-(cyclic carbamate)]
Ki: 3.16 nM

CC[C@H]1OC(=O)[C@H](C)[C@@H](OC(=O)N2C(=O)OC[C@@H]2C)[C@H](C)[C@@H](O[C@@H]2O[C@H](C)C[C@H](N(C)C)[C@H]2O)[C@](C)(OC)C[C@@H](C)C(=O)[C@H](C)[C@H]2N(CCc3ccc(Cl)c(Cl)c3)C(=O)O[C@]12C [Example 11, 11-Deoxy-11-[carboxy(3,4-dichlorophenethyl)amino]-3-O-[4-(S)-methyl-oxazolidin-2-one]carbamoyl-5-O-desosaminyl-6-O-methyl-erythronolide A 11,12-(cyclic carbamate)]
Ki: 3.16 nM

CC[C@H]1OC(=O)[C@H](C)[C@@H](OC(=O)N2C(=O)SC[C@@H]2C)[C@H](C)[C@@H](O[C@@H]2O[C@H](C)C[C@H](N(C)CC3CC3)[C@H]2O)[C@](C)(OC)C[C@@H](C)C(=O)[C@H](C)[C@H]2N(CCc3ccc(Cl)c(Cl)c3)C(=O)O[C@]12C [Example 40, 11-Deoxy-11-[carboxy(3,4-dichlorophenethyl)amino]-3-O-[4-(S)-methyl-thiazolidin-2-one]carbamoyl-5-O-(3'-N-desmethyl-3'-N-cyclopropylmethyl)desosaminyl-6-O-methyl-erythronolide A 11,12-(cyclic carbamate)]
Ki: 8.13 nM

CC[C@H]1OC(=O)[C@H](C)[C@@H](OC(=O)N2C(=O)OC[C@@H]2C)[C@H](C)[C@@H](O[C@@H]2O[C@H](C)C[C@H](N(C)C3CCC3)[C@H]2O)[C@](C)(OC)C[C@@H](C)C(=O)[C@H](C)[C@H]2N(CCc3ccc(F)cc3)C(=O)O[C@]12C [Example 29, 11-Deoxy-11-[carboxy(4-fluorophenethyl)amino]-3-O-[4-(S)-methyl-oxazolidin-2-one]carbamoyl-5-O-(3'-N-desmethyl-3'-N-cyclobutyl)desosaminyl-6-O-methyl-erythronolide A 11,12-(cyclic carbamate)]
Ki: 0.105 nM

CCCN(C)[C@H]1C[C@@H](C)O[C@@H](O[C@@H]2[C@@H](C)[C@H](OC(=O)N3C(=O)OC[C@@H]3C)[C@@H](C)C(=O)O[C@H](CC)[C@@]3(C)OC(=O)N(CCc4ccc(Cl)cc4)[C@@H]3[C@@H](C)C(=O)[C@H](C)C[C@@]2(C)OC)[C@@H]1O [Example 27, 11-Deoxy-11-carboxy(4-chlorophenethyl)amino]-3-O-[4-(S)-methyl-oxazolidin-2-one]carbamoyl-5-O-(3'-N-desmethyl-3'-N-n-propyl)desosaminyl-6-O-methyl-erythronolide A 11,12-(cyclic carbamate)]
p KI: 9.60

CC[C@H]1OC(=O)[C@H](C)[C@@H](OC(=O)N2C(=O)OC[C@@H]2C)[C@H](C)[C@@H](O[C@@H]2O[C@H](C)C[C@H](N(CC3CC3)C(C)C)[C@H]2O)[C@](C)(OC)C[C@@H](C)C(=O)[C@H](C)[C@H]2N(CCc3ccc(Cl)c(Cl)c3)C(=O)O[C@]12C [Example 22, 11-Deoxy-11-[carboxy(3,4-dichlorophenethyl)amino]-3-O-[4-(S)-methyl-oxazolidin-2-one]carbamoyl-5-O-(3'-bis-N-desmethyl-3'-N-cyclopropylmethyl-3'-N-isopropyl)desosaminyl-6-O-methyl-erythronolide A 11,12-(cyclic carbamate)]
Ki: 0.0741 nM

CC[C@H]1OC(=O)[C@H](C)[C@@H](OC(=O)N2C(=O)OC[C@@H]2C)[C@H](C)[C@@H](O[C@@H]2O[C@H](C)C[C@H](N(C)CC3(C)CC3)[C@H]2O)[C@](C)(OC)C[C@@H](C)C(=O)[C@H](C)[C@H]2N(CCc3ccc(Cl)c(Cl)c3)C(=O)O[C@]12C [Example 54, 11-Deoxy-11-[carboxy(3,4-dichlorophenethyl)amino]-3-O-[4-(S)-methyl-oxazolidin-2-one]carbamoyl-5-O-[3'-N-desmethyl-3'-N-(1-methyl-cyclopropyl)methyl]desosaminyl-6-O-methyl-erythronolide A 11,12-(cyclic carbamate)]
Ki: 1.48 nM
